From ChEMBL document CHEMBL1136058, “4-Anilino-3-cyanobenzo[g]quinolines as kinase inhibitors” (Bioorg Med Chem Lett, 2002) come the findings set out here.

The target of assay [1] is T1, Proto-oncogene tyrosine-protein kinase Src (Homo sapiens, UniProt P12931). Nature of the assay: Inhibition of Src protein tyrosine kinase at 0.1 uM.
The target of assay [2] is Epidermal growth factor receptor (Homo sapiens, UniProt P00533). Nature of the assay: Inhibition of epidermal growth factor receptor (EGFR).
The test system of another assay is SW-620. Nature of the assay: Inhibition of SW620 cell proliferation. Conditions: Homo sapiens.
Assay [3] concerns the target Dual specificity mitogen-activated protein kinase kinase 1 (Homo sapiens, UniProt Q02750). Nature of the assay: Inhibition of Dual specificity mitogen-activated protein kinase kinase (MEK-1).
Another assay has as its system LoVo. The assay is described as follows: Inhibition of LOVO cell proliferation. Conditions: Homo sapiens.
For assay [4], the target named is T1, Proto-oncogene tyrosine-protein kinase Src.
Assay [5] has the same target. Nature of the assay: Inhibition of Src protein tyrosine kinase at 0.01 uM.

T1 sequence (P12931 2-536 limits assumed): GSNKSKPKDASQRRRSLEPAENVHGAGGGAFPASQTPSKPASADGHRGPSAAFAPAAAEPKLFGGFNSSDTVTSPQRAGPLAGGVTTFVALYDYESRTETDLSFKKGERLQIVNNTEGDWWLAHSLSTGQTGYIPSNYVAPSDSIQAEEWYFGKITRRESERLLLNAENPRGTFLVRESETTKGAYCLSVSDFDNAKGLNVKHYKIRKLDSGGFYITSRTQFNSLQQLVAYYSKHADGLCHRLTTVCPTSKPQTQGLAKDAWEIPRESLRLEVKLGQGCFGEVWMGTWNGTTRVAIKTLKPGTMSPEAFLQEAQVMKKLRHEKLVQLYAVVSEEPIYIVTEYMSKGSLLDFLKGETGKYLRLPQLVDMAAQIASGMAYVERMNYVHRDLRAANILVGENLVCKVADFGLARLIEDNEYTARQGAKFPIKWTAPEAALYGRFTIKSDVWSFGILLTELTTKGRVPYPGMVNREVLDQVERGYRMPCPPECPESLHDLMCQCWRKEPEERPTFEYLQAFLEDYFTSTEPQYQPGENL
Sequence of Dual specificity mitogen-activated protein kinase kinase 1 (Q02750 whole entry): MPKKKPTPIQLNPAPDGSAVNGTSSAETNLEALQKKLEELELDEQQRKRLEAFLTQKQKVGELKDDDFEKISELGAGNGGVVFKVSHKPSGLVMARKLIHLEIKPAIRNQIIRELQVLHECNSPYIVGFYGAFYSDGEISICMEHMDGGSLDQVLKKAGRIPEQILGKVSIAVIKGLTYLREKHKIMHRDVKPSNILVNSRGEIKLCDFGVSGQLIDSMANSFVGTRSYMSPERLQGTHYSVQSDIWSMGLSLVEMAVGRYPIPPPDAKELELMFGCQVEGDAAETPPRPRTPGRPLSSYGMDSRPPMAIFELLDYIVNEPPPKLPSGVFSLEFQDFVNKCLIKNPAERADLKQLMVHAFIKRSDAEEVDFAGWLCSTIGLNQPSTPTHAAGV
Sequence of Epidermal growth factor receptor (P00533 whole entry): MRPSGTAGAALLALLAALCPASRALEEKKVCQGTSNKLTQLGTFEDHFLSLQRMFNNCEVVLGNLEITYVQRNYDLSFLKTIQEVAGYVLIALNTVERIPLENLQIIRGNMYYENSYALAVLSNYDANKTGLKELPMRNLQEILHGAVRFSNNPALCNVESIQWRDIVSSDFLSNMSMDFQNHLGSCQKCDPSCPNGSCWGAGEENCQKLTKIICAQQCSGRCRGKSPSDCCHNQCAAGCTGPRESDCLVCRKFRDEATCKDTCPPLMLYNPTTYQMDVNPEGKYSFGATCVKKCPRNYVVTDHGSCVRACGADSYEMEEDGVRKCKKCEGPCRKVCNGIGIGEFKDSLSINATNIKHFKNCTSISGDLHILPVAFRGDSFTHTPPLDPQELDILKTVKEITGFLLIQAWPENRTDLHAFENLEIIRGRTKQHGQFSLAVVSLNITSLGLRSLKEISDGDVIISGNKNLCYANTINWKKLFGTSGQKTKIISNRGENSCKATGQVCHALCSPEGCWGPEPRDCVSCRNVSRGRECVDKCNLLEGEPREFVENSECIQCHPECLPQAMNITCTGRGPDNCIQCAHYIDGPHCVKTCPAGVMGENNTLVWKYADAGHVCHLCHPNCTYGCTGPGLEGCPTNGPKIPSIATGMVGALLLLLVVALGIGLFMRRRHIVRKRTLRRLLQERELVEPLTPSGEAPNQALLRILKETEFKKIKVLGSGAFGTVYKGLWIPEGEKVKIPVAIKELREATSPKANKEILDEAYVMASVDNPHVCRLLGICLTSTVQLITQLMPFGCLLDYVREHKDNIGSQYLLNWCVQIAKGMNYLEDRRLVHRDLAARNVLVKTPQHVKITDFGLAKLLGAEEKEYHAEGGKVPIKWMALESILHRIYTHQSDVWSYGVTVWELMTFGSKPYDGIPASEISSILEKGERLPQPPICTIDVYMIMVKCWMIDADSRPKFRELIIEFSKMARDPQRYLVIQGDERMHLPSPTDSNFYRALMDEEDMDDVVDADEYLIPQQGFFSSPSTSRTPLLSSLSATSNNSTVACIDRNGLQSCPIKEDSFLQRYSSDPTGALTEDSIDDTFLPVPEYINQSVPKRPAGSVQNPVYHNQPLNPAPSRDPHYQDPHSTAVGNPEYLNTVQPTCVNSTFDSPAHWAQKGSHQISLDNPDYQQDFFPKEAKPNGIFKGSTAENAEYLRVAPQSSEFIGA

Take `COc1ccc2cc3ncc(C#N)c(Nc4ccc(Cl)cc4Cl)c3cc2c1`: the inhibition (commonly how much of the control response was suppressed) in assay [1] worked out at 30%.

With `COc1ccc2cc3c(Nc4ccc(Cl)cc4Cl)c(C#N)cnc3cc2c1`, the inhibition in assay [1] is 30%.

As to `COc1cc2cc3ncc(C#N)c(Nc4ccc(F)c(Cl)c4)c3cc2cc1OC`, the half-inhibitory concentration (IC50) (as a rule, the concentration that gives 50% inhibition) amounted to 18000 nM in assay [2] and 1990 nM in the assay on SW-620. Turning to `COc1cc2cc3ncc(C#N)c(Nc4ccc(Oc5ccccc5)cc4)c3cc2cc1OC`, the IC50 in assay [3] came to 10 nM; in the assay with LoVo, 670 nM. Take `COc1cc2ncc(C#N)c(Nc3ccc(Cl)cc3Cl)c2cc1OC`: the half-inhibitory concentration (IC50) in assay [4] was 38 nM. `N#Cc1cnc2cc3cc(O)c(O)cc3cc2c1Nc1ccc(Cl)cc1Cl`: in assay [5], the inhibition stood at 10%.
